Patent US20250368687A1, “SHORT SYNTHETIC PEPTIDES AND USES THEREOF IN THE TREATMENT OF ENTEROVIRUS INFECTION” (CITY UNIVERSITY OF HONG KONG, priority 2024, published 2025)

Key:
[1] = test system: p38 MAPK; settings: background statement; cited from earlier work
[2] = test system: EV-A71 IRES activity; assay: Dual-luciferase IRES reporter assay in RD cells; assay type: cell-based; settings: 2 μM for 2 h, RD cells co-transfected with 2Apro and pIRES reporter plasmids 24 h
Protocol: FIGS. 6A-6C Ser78 phosphorylation-deficient Hsp27 suppresses the viral IRES activity. (FIG. 6A) RD cells were pretreated with 2 μM SB203580 for 2 h, then co-transfected with a 2A^pro-expressing plasmid (200 ng) and pIRES reporter plasmid (200 ng) for 24 h, then the luciferase activity was measured. (FIG. 6B) HEK 293T cells were co-transfected with Hsp27 (WT, 3A, S15A, S78A, and S82A) plasmid (800 ng), pIRES reporter plasmid (200 ng) and 2A^pro-expressing plasmid (200 ng) for 24 h, then the luciferase activity was measured. (FIG. 6C) HEK 293T cells were co-transfected with Hsp27 (WT, 3A, S15A, S78A, 3D S15D, and S78D) plasmid (800 ng), pIRES reporter plasmid (200 ng) and 2A^C110A-expressing plasmid (200 ng) for 24 h, then the luciferase activity was measured. Statistical analyses were carried out using Student's t-test. *: p<0.05, **: p<0.01, ***: p<0.001. Data are expressed as mean ±SD.
HEK 293T cells were seeded in 24-wells, and then co-transfected with plasmids to simultaneously express 2A^pro (200 ng), pIRES reporter (200 ng), and the wild-type Hsp27 or its mutants (800 ng). […] The Renilla luciferase (RLuc) and Firefly luciferase (FLuc) activity were determined by using a dual-luciferase reporter assay (Promega) according to the manufacturer's instructions in a Lumat LB9507 bioluminometer. […]

[3] = test system: EV-A71; assay: Virus titration (TCID50); assay type: cell-based; settings: TCID50, RD cells (FIG. 10K)
Protocol: FIGS. 10A-10K. Peptide S78 inhibited EV-A71 replication and propagation. (FIG. 10A) RD cells were pre-treated with peptides S78 or for 2 hours and infected with EV-A71 at the MOI of 10 for 6 hours. Cell lysates were collected for western blot assay. Hsp27 phosphorylation on Ser 15, 78, 82 were detected by specific antibodies. β-Actin were detected as internal control. (FIG. 10B) Densitometric analysis of FIG. 9A. (FIG. 10C) HEK 293T cells were pre-treated with peptides S78 or S78A at the concentration of 25 μM for 2 hours and then co-transfected with Hsp27-WT plasmid (800 ng), pIRES reporter plasmid (200 ng) and 2A^pro-expressing plasmid or 2AC110A-expressing plasmid (200 ng) for 24 h, then the luciferase activity was measured. (FIG. 10D-10E) RD cells were treated with peptides S78 or S78A and then infected with EV-A71. EV-A71 VP1 were detected. (FIG. 10F) RD cells were treated with peptides and then infected with EV-A71 at the MOI of 1 for 12 hours. The EV-A71-induced CPE was captured. (FIG. 10G-10H) Intracellular viral RNA was extracted and quantified by qPCR. (FIG. 10I) Densitometric analysis FIG. 9D-E. (FIG. 10J) RD cells were treated with peptides S78 or and then infected with EV-A71 at the MOI of 1 for 12 hours. Extracellular viral RNA was extracted and quantified by qPCR. (FIG. 10K) Viral titration was calculated by TCID50. […] Data are expressed as mean ±SD.
FIGS. 11A-11G Inhibition of EV-A71 Protein Translation and Viral Reproduction by peptide S82A. (FIG. 11A) HEK 293T cells were pre-treated with peptides NC, S78, S78A, S82A, or S78-3A at the concentration of 25 μM for 2 hours and then co-transfected with Hsp27-WT plasmid (800 ng), pIRES reporter plasmid (200 ng) and 2A^pro-expressing plasmid for 24 h, then the luciferase activity was measured. […] Intracellular viral RNA was extracted and quantified by qPCR. […] EV-A71 VP1 were detected. β-Actin was detected as an internal control. (FIG. 11F) Densitometric analysis of the EV-A71 VP1 level in FIG. S7C-E was quantified and normalized with β-Actin using ImageJ. […] Viral titration was calculated. […] Data are expressed as mean ±SD. […]

[4] = test system: RD cells; assay: CCK-8 assay; assay type: cell-based; settings: data not shown
Protocol: RD cells were seeded in 96-well cell plates (1×10^4/well) and placed in the 5% CO2 incubator for 1 day. Then the cells were treated with peptides for 2 days. 90 μl medium and 10 μl of CCK-8 (BioSharp, BS350B) was added to each well of the 96-well plate, which were incubated at 37° C. for 1 h. A microplate reader (BioTek, Synergy H1) was used to measure the OD value of each well at 450 nm.

Compound: C[S+]([O-])c1ccc(-c2nc(-c3ccncc3)c(-c3ccc(F)cc3)[nH]2)cc1 (stereo not drawn) [SB203580, reference compound]
- secretion of inflammatory factors (such as IL-6, IL-10, and TNF-α) [1]: inhibited
- viral replication [1]: reduced
- reduction of IRES activity [2]: 32%

Compound: Ac-RKKRRQRRRAYSRALARQLSS-NH2 [S78A]
- decrease of viral titer [3]: 50 folds

Compound: Ac-RKKRRQRRRAYSRALSRQLSS-NH2 [S78]
- decrease of viral titer [3]: 450 folds

Compound: Ac-RKKRRQRRRYSREANQPKPSPKRESGEE-NH2 [NC, reference compound]
- CC50 (in words) [4]: high
